Values joined by “and” are separate entries in the source; they are usually repeats but may differ in a detail not shown here. Identical values can stand only once. “Also recorded” adds a separate entry of the source.
Columns and labels:
[1] = molecular target: T1, recombinant bHLH-MYC protein (Homo sapiens, UniProt P01106); test: Direct binding to MYC by microscale thermophoresis (MST); details: compound 200 μM, labeled MYC 25 nM
T1 construct: The recombinant bHLHZ-Myc protein carrying an aminoterminal His6-tag; made in house; host or cells: bacteria
T1 sequence (P01106 368-452 limits assumed): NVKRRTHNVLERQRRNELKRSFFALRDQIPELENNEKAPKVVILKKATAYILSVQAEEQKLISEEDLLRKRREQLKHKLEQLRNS
Description: To investigate the capacity of MYC degraders to directly bind to MYC, microscale thermophoresis (MST) experiments were performed using recombinant bHLH-MYC protein. MST is a very sensitive, recently developed method based on the shift of fluorescent molecules moving in a temperature gradient that can be perturbed by interactions with other molecules. In this binding assay, a His6-tagged bHLH-MYC protein was fluorescently labeled via its hexa-histidine tag and subjected to MST measurement in the absence and in the presence of MYC degraders. All compounds tested shifted MYC thermophoresis (Figure 4), as shown by normalized fluorescence values, a clear indication that they bound directly to MYC. MST experiments were also run under identical conditions using two reference Myc inhibitors as positive controls: the biphenyl pyrazole MYCi361 and a thiazolidinone derivative, 10058-F4. Both are well-characterized MYC binders: The first one has been used as a POI ligand for the PROTACs designed and synthesized in this work, and the latter is widely known to inhibit MYC by specifically disrupting the MYC–Max complex formation.
Figure 4 Assay of direct binding to MYC by microscale thermophoresis (MST): MST of fluorescently labeled MYC (25 nM) mixed with several MYC degraders (200 μM) or the solvent alone (DMSO). MST of MYC binders 10058-F4 and MYCi361 used as positive controls. Data are shown as mean ± SEM.
Microscale thermophoresis (MST) assay was used to determine whether PROTACs bind directly to MYC. The recombinant bHLHZ-Myc protein carrying an aminoterminal His6-tag was expressed in bacteria from a plasmid kindly provided by George Sianidis (BRFAA, Greece) and purified, as previously described,[33] with minor modifications. […] MST was measured using a Monolith NT.115Pico with a red filter at an ambient temperature of 25 °C. […] Results were analyzed using the software provided with the Monolith instrument. Data are reported as ΔFnorm, which results from subtracting the normalized fluorescence value (Fnorm) of MYC in the absence of PROTAC from Fnorm in excess of PROTAC (bound state).

[2] = test system: MYC:MAX complex; test: In vitro MYC-MAX binding assay (GST pull-down); format: biochemical; details: compound 150 μM
Description: To assess whether the new degraders affect direct interaction of MYC with MAX, we employed a pull-down approach using recombinant proteins that correspond to the bHLHZ regions of MYC and MAX. GST-MYC, bound to glutathione sepharose beads, was incubated with the pyrazole compounds, followed by incubation with His-MAX. Finally, the complex of GST-MYC/HisMAX was eluted by the addition of excess glutathione, while the amount of the eluted complex was assessed by western blotting using anti-MAX antibodies (Figure 5).
Figure 5 Inhibition of the formation of the MYC:MAX complex by the pyrazole compounds. The indicated compounds (150 μM), or the solvent alone (DMSO, used as a control), were incubated with GST-MYC containing glutathione beads for 10 min at […], followed by incubation with His-MAX. […] The complex of GST-MYC:His-MAX was eluted by incubation of the beads with free glutathione. The amount of the eluted complex was analyzed by western blotting (presented in the inset), using anti-MAX antibodies, while the protein bands were quantified with the ImageJ software. The intensity of the bands is presented in the bar graph. […] Statistics were based on the unpaired two-tailed student’s t-test. Data are shown as mean ± SEM.
MYC–MAX complex formation assays were performed using recombinantly produced GST-MYC and His-MAX proteins, following the glutathione GST pull-down principle (Lentzaris et al., in preparation). In this assay, recombinant GST-MYC bound to glutathione beads was preincubated with the indicated compound or vehicle […]. As a negative control, empty beads, i.e., not loaded with GST-MYC, were used. The formed complex was eluted with glutathione, while the amount of bound MAX (indicating the amount of the generated complex) was assessed by Western blotting using anti-MAX antibodies (Abcam) and quantified based on the image J free software. All assays were carried out at least three independent times.

[3] = test system: PC3 cells; test: Cell uptake / intracellular concentration by LC-MS/MS, PC3; format: in vitro ADME, human; details: PC3, 24 h incubation with 10 μM
Description: Therefore, in order to better comprehend the observed activities of our degraders, following incubation of each compound with cells, the intracellular concentrations of the synthesized derivatives were evaluated in different cancer cell lines, as described previously.[28],[29] SKBR3, PC3, or A549 cells were incubated with PROTACs (at a 10 μΜ concentration) for selected time points, respectively. Upon sample treatment, compounds were extracted and analyzed by LC-MS/MS. Table 1 presents the percentage of the molecule that enters the cells after 24 h incubation at the 10 μM concentration. […] The small molecule MYCi361, used as a binding domain component of MYC, was also evaluated in the cell uptake assay (Table 1).
Cells were plated in 24-well plates at a density of 2 × 10^5 cells/well. 24 h after seeding, cells were incubated with each PROTAC (10 μΜ) for certain time points (1 h, 4 h, 8 h, and 24 h). The incubations were terminated at the selected time points by removing the medium and washing the cells twice with 1 mL cold PBS (1×) in each well in order to remove unbound PROTAC. Subsequently, the cells were lysed by adding a cold solution of ACN:H2O (3:2) and scraping off the cell monolayer. This process was done in two steps: first, 200 μL of ACN:H2O was added, the cells were scraped, and the cell lysate was collected. The second step involved the addition of an extra 100 μL of ACN:H2O, scraping, and collection of the remaining lysate. Samples were subsequently vortexed, sonicated, and centrifuged for 10 min at 13 000 rpm. The supernatants were collected, evaporated for 1 h at 55 °C, and stored at −20 °C until the day of analysis. Samples were then reconstituted in 200 μL of initial mobile phase (100% A), and the intracellular accumulation of PROTACs was determined by LC-MS/MS analysis using Warfarin as a stable internal standard and PROTAC standards for the construction of analytical standard curves.
The percentage of cell uptake was calculated as follows: [drawing 1]

SMILES	direct binding to MYC (shift of MYC thermophoresis) [1]	inhibition of MYC:MAX complex formation (binding of His-MAX to GST-MYC) [2]	Uptake by cells [3]
Cc1ncsc1-c1ccc(CNC(=O)[C@@H]2C[C@@H](O)CN2C(=O)[C@@H](NC(=O)CCC(=O)NCCCOc2ccc(-c3cc(C(F)(F)F)nn3C)c(O)c2-c2cc(C(F)(F)F)cc(C(F)(F)F)c2)C(C)(C)C)cc1 [CSI86]	equally potent	no effect on MYC/MAX dimerization	19% and 19 ± 4%
Cc1ncsc1-c1ccc(CNC(=O)[C@@H]2C[C@@H](O)CN2C(=O)[C@@H](NC(=O)CCCC(=O)NCCCOc2ccc(-c3cc(C(F)(F)F)nn3C)c(O)c2-c2cc(C(F)(F)F)cc(C(F)(F)F)c2)C(C)(C)C)cc1 [CSI107]	equally potent	inhibited the binding of HisMAX to MYC; also recorded: inhibits dimerization	13% and 13 ± 3%
Cc1ncsc1-c1ccc(CNC(=O)[C@@H]2C[C@@H](O)CN2C(=O)[C@@H](NC(=O)COCCOCC(=O)NCCCOc2ccc(-c3cc(C(F)(F)F)nn3C)c(O)c2-c2cc(C(F)(F)F)cc(C(F)(F)F)c2)C(C)(C)C)cc1 [CSI135]	equally potent	–	–
